{"source": "patent US11673865B2", "about": "“Cyclooctynes for click chemistry” (Massachusetts Institute of Technology, priority 2021, dated 2023)", "assay_type_in_all_cases": "physicochemical", "key": {"[1]": {"assay": "Cyclooctyne stability in the presence of glutathione", "settings": "25 μM", "method": "The stability of ABC in the presence of biological nucleophiles was determined using a biomimetic concentration of glutathione, which contains amino, carboxyl, and sulfhydryl groups. DIBAC was used as a comparator.\nA solution of compound 3 (25 μM) or DIBAC (25 μM) was prepared in phosphate-buffered saline containing reduced glutathione (1.0 mM), oxidized glutathione (0.2 mM), and DMSO (2% v/v). The solutions were incubated at 37° C. (FIG. 6), and HPLC analyses were carried out every hour to determine the remaining concentration of dipolarophile. Subsequently, plots of In(concentration) versus time were prepared to calculate values of kobs for the degradation. These values were divided by the concentration of reduced glutathione to obtain second-order rate constants for the degradation with respect to reduced glutathione."}, "[2]": {"assay": "1,3-dipolar cycloaddition kinetics by HPLC", "settings": "CH2Cl2, 26° C., triplicate", "method": "(§1) Kinetics General Method A. Stock solutions at the specified concentrations in the specified solvents were prepared for each dipole and dipolarophile. Aliquots (0.5 mL) of dipole and dipolarophile were mixed, and reactions were monitored by HPLC with aliquots injected at the timepoints shown in the kinetic traces below. Each reaction was carried out in triplicate. The concentration of remaining dipolarophile was obtained from its corresponding peak in the chromatogram monitored at 280 nm. Second-order rate constants were calculated from the slope of the plot of [dipolarophile]^−1 versus time.\nReaction of compound 9 with compound 3 in CH2Cl2. Kinetics General Method A was followed using stock solutions at 80 μM and resulting in final reaction concentrations of 40 μM 2-Diazo-N-methyl-N-(phenylmethyl)acetamide and 40 μM compound 3."}, "[3]": {"assay": "1,3-dipolar cycloaddition kinetics by HPLC", "settings": "with N-benzylazidoacetamide; CH2Cl2 (FIG. 1)", "method": "(§2) The rates of reaction for the 1,3-dipolar cycloaddition of dipoles N-benzylazidoacetamide and N-benzyldiazoacetamide with compound 3 in both aprotic (CH2Cl2) and protic solvents (MeOH and PBS containing 2% v/v DMSO) were measured. The depletion of compound 3by using HPLC and second-order rate constants were calculated from the slope of a plot of [compound 3]^−1 versus time. As a benchmark, the rate of the reaction of DIBO with each dipole was also measured.\nas §1\nReaction of N-benzylazidoacetamide with DIBO in CH2Cl2. Kinetics General Method A was followed using stock solutions at 2 mM and resulting in final reaction concentrations of 1 mM N-benzylazidoacetamide and 1 mM DIBO.\nReaction of N-benzylazidoacetamide with compound 3 in CH2Cl2. […]"}, "[4]": {"assay": "1,3-dipolar cycloaddition kinetics by HPLC", "settings": "CH2Cl2 (FIG. 1)", "method": "To assess the effect of the putative hydrogen bond, the reactivity of compound 3 and DIBO with ethyl diazoacetate, which lacks a hydrogen bond donor, was tested. The rate constant for the reaction of compound 3 with ethyl diazoacetate was nearly 200-fold lower than that with N-benzylazidoacetamide. This decrease is substantially greater than the 4-fold decrease in rate constant for the reaction of these same dipoles with DIBO (FIG. 1).\nas §1\nReaction of ethyl diazoacetate with compound 3 in CH2Cl2. Kinetics General Method A was followed using stock solutions at 400 μM and resulting in final reaction concentrations of 200 μM ethyl diazoacetate and 200 μM compound 3."}, "[5]": {"assay": "1,3-dipolar cycloaddition kinetics by HPLC", "settings": "CH2Cl2, 26° C., triplicate", "method": "as §1\nReaction of 2-Azido-N-methyl-N-(phenylmethyl)acetamide with compound 3 in CH2Cl2. Kinetics General Method A was followed using stock solutions at 80 μM and resulting in final reaction concentrations of 40 μM 2-Azido-N-methyl-N-(phenylmethyl)acetamide and 40 μM compound 3.", "remark": "listed apart in the source"}, "[6]": {"assay": "1,3-dipolar cycloaddition kinetics by HPLC", "method": "as §2, §1\nReaction of N-benzyldiazoacetamide with DIBO in CH2Cl2. Kinetics General Method A was followed using stock solutions at 2 mM and resulting in final reaction concentrations of 1 mM N-benzyldiazoacetamide and 1 mM DIBO.\nReaction of N-benzyldiazoacetamide with compound 3 in CH2Cl2. […]"}}, "data": [{"compound": "Clc1ccc2c(c1)CCc1cccnc1C#C2", "note": "[compound 3, 2-Azabenzo-8-chlorobenzocyclooctyne]", "values": [{"measurement": "second-order rate constant of degradation with respect to reduced glutathione", "setting": "[1]", "result": 0.10, "unit": "M⁻¹ s⁻¹"}, {"measurement": "second-order rate constant k", "setting": "[2]", "result": 0.75, "unit": "M⁻¹ s⁻¹"}, {"measurement": "rate increase relative to DIBO", "setting": "[3]", "result": 30, "unit": "fold"}, {"measurement": "decrease in rate constant with ethyl diazoacetate relative to N-benzylazidoacetamide", "setting": "[4]", "result": "~200", "unit": "fold"}, {"measurement": "second-order rate constant k", "setting": "[5]", "result": 1.0, "unit": "M⁻¹ s⁻¹"}, {"measurement": "rate increase of N-benzyl diazoacetamide over N-benzyl azidoacetamide", "setting": "[6]; diazoacetamide over azidoacetamide", "result": "~20", "unit": "fold"}, {"measurement": "rate increase relative to DIBO", "setting": "[6]; with N-benzyl diazoacetamide, CH2Cl2 (FIG. 1)", "result": "1,200 fold"}]}, {"compound": "dibenzoazacyclooctyne [DIBAC, reference compound]", "values": [{"measurement": "second-order rate constant of degradation with respect to reduced glutathione", "setting": "[1]; 1 mM reduced and 0.2 mM oxidized glutathione in PBS containing DMSO (2% v/v), 37° C., HPLC", "result": 0.05, "unit": "M⁻¹ s⁻¹"}]}]}
